For assay [1], the target named is T1, ligand binding domain of human RORγ (Homo sapiens, UniProt P51449).
T1 construct: host or cells: HEK293t
T1 sequence (P51449 269-508 limits assumed): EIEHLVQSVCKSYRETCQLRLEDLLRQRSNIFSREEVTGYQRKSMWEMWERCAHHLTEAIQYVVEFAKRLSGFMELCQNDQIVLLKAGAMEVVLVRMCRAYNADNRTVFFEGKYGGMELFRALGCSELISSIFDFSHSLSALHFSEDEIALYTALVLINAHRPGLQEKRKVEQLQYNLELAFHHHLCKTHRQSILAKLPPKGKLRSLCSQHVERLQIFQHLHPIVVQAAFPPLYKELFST
In words: RORγ Reporter Assay (Gal4). The assay is classed as cell-based. The conditions noted are these: for inhibition at 1 µM: HEK-293T, read-out: Gal4 activity range @ 1 μM (% inhibition); for Gal4 activity range @ 0.1 μM (% inhibition): RORγ Reporter Assay (Gal4), HEK293t reporter cells, compound at 0.1 μM, values are activity range bounds. A digest of the protocol: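 HEK293t cells expressing Gal4 DBD–human RORγ LBD hybrid with Gal4-UAS firefly luciferase reporter; compounds at final 1,000 nM and 100 nM (0.1% DMSO), triplicate, medium with 10% charcoal-stripped FBS, 24 h at 37 °C. Luminescence read; percent reduction of RORγ activity calculated versus vehicle-only wells.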
For orientation: A reporter such as luciferase makes a cellular process visible.

The target in assay [2] is T2, human RORγt (Ligand Binding Domain) (Homo sapiens, UniProt P51449).
T2 construct: purchased Crelux (Planegg, Germany) batch no PC5032-1
T2 sequence (P51449 269-508 limits assumed): T1 sequence (P51449 269-508 limits assumed)
Nature of the assay: Fluorescence Polarization (FP) Assay. To be noted: 100 nM human RORγt LBD, 25 nM TAMRA probe, values are activity range bounds. The gist of the method: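 In vitro fluorescence polarization binding assay on the RORγt ligand-binding pocket. A TAMRA-labelled RORγt ligand probe (MW 910 g/mol) was used, with DMSO as negative control.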
In general terms: Fluorescence polarisation rises when a labelled molecule tumbles more slowly, as on binding a larger partner.

Setting [3] is: 1 μM test compound, HEK293t RORγ reporter cells, 24 hour.

The record followed here is patent publication US10683293B2, “Optionally fused heterocyclyl-substituted derivatives of pyrimidine useful for the treatment of inflammatory, metabolic, oncologic and autoimmune diseases” (NUEVOLUTION A/S, priority 2014, dated 2020).

pIC50: −log10 of the molar value.

By inhibition is commonly meant how much of the control response was suppressed. As usually defined, the pIC50 is −log10 of the IC50, conventionally taken in molar units. Higher therefore signals a low IC50. For the molecule `CC(C)c1ccc(CN(c2ncnc(NCc3ccc(CC(N)=O)cc3)c2F)C2CC2)cc1` [Example A53, 2-[4-[[[6-[cyclopropyl-[(4-isopropylphenyl)methyl]amino]-5-fluoro-pyrimidin-4-yl]amino]methyl]phenyl]acetamide], the inhibition at 1 µM in assay [1] (setting [3]) was greater than 80%. In addition, in assay [1], the “Gal4 activity range @ 0.1 μM (% inhibition)” value is listed as greater than 80 % inhibition. In addition, the pIC50 in assay [2] was greater than 6.30.
For `CCOc1ccc(CN(c2ncnc(NCc3ccc(CC(N)=O)cc3)c2F)C2CC2)cc1` [Example A54, 2-[4-[[[6-[cyclopropyl-[(4-ethoxyphenyl)methyl]amino]-5-fluoro-pyrimidin-4-yl]amino]methyl]phenyl]acetamide], in that order: greater than 80%, greater than 50 % inhibition and greater than 6.30.
Regarding `COc1cccc(CN(c2ncnc(NCc3ccc(CC(N)=O)cc3)c2F)C2CC2)c1` [Example A55, 2-[4-[[[6-[cyclopropyl-[(3-methoxyphenyl)methyl]amino]-5-fluoro-pyrimidin-4-yl]amino]methyl]phenyl]acetamide], in assay [1] (setting [3]), the inhibition at 1 µM was greater than 0%. In assay [2], the negative logarithm of the IC50 (pIC50) is greater than 6.30.
Take `OCC1(Cn2ccc3c(N(Cc4ccc(C(F)(F)F)cc4)C4CC4)ncnc32)COC1` [Example A56, [3-[[4-[cyclopropyl-[[4-(trifluoromethyl)phenyl]methyl]amino]pyrrolo[2,3-d]pyrimidin-7-yl]methyl]oxetan-3-yl]methanol]: the inhibition at 1 µM in assay [1] (setting [3]) was greater than 80%. Moreover, the “Gal4 activity range @ 0.1 μM (% inhibition)” value in assay [1] was greater than 80 % inhibition. Besides, in assay [2], the pIC50 is greater than 6.30.
Taken in the same sequence, the figures for `O=S(=O)(N[C@H]1CC[C@H](CNc2ncnc(N(Cc3ccc(C(F)(F)F)cc3)C3CC3)c2F)CC1)C(F)(F)F` [Example A57, N-[4-[[[6-[cyclopropyl-[[4-(trifluoromethyl)phenyl]methyl]amino]-5-fluoro-pyrimidin-4-yl]amino]methyl]cyclohexyl]-1,1,1-trifluoro-methanesulfonamide] were greater than 80%, greater than 50 % inhibition and greater than 6.30.
Consider `CN(Cc1cccc(-n2cccn2)c1)c1ncnc(NCc2ccc(CC(N)=O)cc2)c1F` [Example A58, 2-[4-[[[5-fluoro-6-[methyl-[(3-pyrazol-1-ylphenyl)methyl]amino]pyrimidin-4-yl]amino]methyl]phenyl]acetamide], for which the inhibition at 1 µM in assay [1] (setting [3]) was greater than 80%. Besides, the “Gal4 activity range @ 0.1 μM (% inhibition)” value in assay [1] is listed as greater than 20 % inhibition. In addition, the pIC50 in assay [2] is greater than 6.30.
For `CS(=O)(=O)Nc1ccc(CNc2ncnc(N(Cc3ccc(C(F)(F)F)cc3)C3CC3)c2F)cc1` [Example A59, N-[4-[[[6-[cyclopropyl-[[4-(trifluoromethyl)phenyl]methyl]amino]-5-fluoro-pyrimidin-4-yl]amino]methyl]phenyl]methane-sulfonamide], in that order: greater than 80%, greater than 80 % inhibition and greater than 6.30.
Taken in the same sequence, the figures for `O=S(=O)(Nc1ccc(CNc2ncnc(N(Cc3ccc(C(F)(F)F)cc3)C3CC3)c2F)cc1)C(F)(F)F` [Example A60, N-[4-[[[6-[cyclopropyl-[[4-(trifluoromethyl)phenyl]methyl]amino]-5-fluoro-pyrimidin-4-yl]amino]methyl]phenyl]-1,1,1-trifluoro-methanesulfonamide] were greater than 80%, greater than 0 % inhibition and greater than 6.30.
For `Fc1c(NC[C@H]2CC[C@H](Cc3nnn[nH]3)CC2)ncnc1N(Cc1ccc(C(F)(F)F)cc1)C1CC1` [Example A61, N4-cyclopropyl-5-fluoro-N6-[[4-(1H-tetrazol-5-ylmethyl)cyclohexyl]methyl]-N4-[[4-(trifluoromethyl)phenyl]methyl] pyrimidine-4,6-diamine], in that order: greater than 80%, greater than 20 % inhibition and greater than 6.30.
Consider `N#CC[C@H]1CC[C@H](CNc2ncnc(N(Cc3ccc(C(F)(F)F)cc3)C3CC3)c2F)CC1` [Example A62, 2-[4-[[[6-[cyclopropyl-[[4-(trifluoromethyl)phenyl]methyl]amino]-5-fluoro-pyrimidin-4-yl]amino]methyl]cyclohexyl] acetonitrile], for which, in assay [1] (setting [3]), the inhibition at 1 µM is greater than 80%. Further, in assay [1], the “Gal4 activity range @ 0.1 μM (% inhibition)” value is on record as greater than 80 % inhibition. Also, the pIC50 in assay [2] was greater than 6.30.
Taken in the same sequence, the figures for `CS(=O)(=O)NCC1(CNc2ncnc(N(Cc3ccc(C(F)(F)F)cc3)C3CC3)c2F)CCOCC1` [Example A63, N-[[4-[[[6-[cyclopropyl-[[4-(trifluoromethyl)phenyl]methyl]amino]-5-fluoro-pyrimidin-4-yl]amino]methyl]tetrahydropyran-4-yl]methyl]methanesulfonamide] were greater than 80%, greater than 80 % inhibition and greater than 6.30.
As to `N#Cc1ccc(CN(c2ncnc(NCc3ccc(CC(N)=O)cc3)c2F)C2CC2)cc1` [Example A64, 2-[4-[[[6-[(4-cyanophenyl)methyl-cyclopropyl-amino]-5-fluoro-pyrimidin-4-yl]amino]methyl]phenyl]acetamide], the inhibition at 1 µM in assay [1] (setting [3]) was greater than 80%. Further, in assay [1], the “Gal4 activity range @ 0.1 μM (% inhibition)” value is greater than 50 % inhibition. Also, the negative-log IC50 (pIC50) in assay [2] was greater than 6.30.
Taken in the same sequence, the figures for `NC(=O)Cc1ccc(CNc2ncnc(N(Cc3c(F)cccc3Cl)C3CC3)c2F)cc1` [Example A65, 2-[4-[[[6-[(2-chloro-6-fluoro-phenyl)methyl-cyclopropyl-amino]-5-fluoro-pyrimidin-4-yl]amino]methyl]phenyl]acetamide] were greater than 50%, greater than 20 % inhibition and greater than 6.30.
Taken in the same sequence, the figures for `NC(=O)Cc1ccc(CNc2ncnc(N(Cc3ccccc3Cl)C3CC3)c2F)cc1` [Example A66, 2-[4-[[[6-[(2-chlorophenyl)methyl-cyclopropyl-amino]-5-fluoro-pyrimidin-4-yl]amino]methyl]phenyl]acetamide] were greater than 50%, greater than 20 % inhibition and greater than 6.30.
Consider `Cc1cccc(Cl)c1CN(c1ncnc(NCc2ccc(CC(N)=O)cc2)c1F)C1CC1` [Example A67, 2-[4-[[[6-[(2-chloro-6-methyl-phenyl)methyl-cyclopropyl-amino]-5-fluoro-pyrimidin-4-yl]amino]methyl]phenyl]acetamide], for which the inhibition at 1 µM in assay [1] (setting [3]) was greater than 50%. In assay [1], the “Gal4 activity range @ 0.1 μM (% inhibition)” value was greater than 20 % inhibition. In addition, in assay [2], the pIC50 is greater than 6.30.
`CCCn1nc(C)cc1CN(C)c1ncnc(NCc2ccc(CC(N)=O)cc2)c1F` [Example A68, 2-[4-[[[5-fluoro-6-[methyl-[(5-methyl-2-propyl-pyrazol-3-yl)methyl]amino]pyrimidin-4-yl]amino]methyl]phenyl]acetamide]: the “Gal4 activity range @ 1 μM (% inhibition)” value in assay [1] (1 μM test compound, HEK293t RORγ reporter cells, 24 hour, 1 µM) is greater than 50%. Moreover, in assay [1], the “Gal4 activity range @ 0.1 μM (% inhibition)” value is reported as greater than 0 % inhibition. In addition, in assay [2], the pIC50 was greater than 6.30.
Turning to `CC(c1ccc(C(F)(F)F)cc1)N(c1ncnc(NCC2CCN(S(C)(=O)=O)CC2)c1F)C1CC1` (centres unmarked) [Example A73, N4-cyclopropyl-5-fluoro-N6-[(1-methylsulfonyl-4-piperidyl)methyl]-N4-[1-[4-(trifluoromethyl)phenyl]ethyl] pyrimidine-4,6-diamine], the inhibition at 1 µM in assay [1] (setting [3]) was greater than 80%. Also, the “Gal4 activity range @ 0.1 μM (% inhibition)” value in assay [1] was greater than 80 % inhibition. The molecule further showed a pIC50 in assay [2] greater than 6.30.
For `CC(c1ccc(C(F)(F)F)cc1)N(c1ncnc(NCc2ccc(NS(=O)(=O)C(F)(F)F)cc2)c1F)C1CC1` (centres unmarked) [Example A74, N-[4-[[[6-[cyclopropyl-[1-[4-(trifluoromethyl)phenyl]ethyl]amino]-5-fluoro-pyrimidin-4-yl]amino]methyl]phenyl]-1,1,1-trifluoro-methanesulfonamide], in assay [1] (setting [3]), the inhibition at 1 µM was greater than 50%. Moreover, the “Gal4 activity range @ 0.1 μM (% inhibition)” value in assay [1] is given as greater than 0 % inhibition. The pIC50 in assay [2] is greater than 6.30.
For `FCC1(CNc2ncnc(N(Cc3ccc(C(F)(F)F)cc3)C3CC3)c2F)CCOCC1` [Example A75, N4-cyclopropyl-5-fluoro-N6-[[4-(fluoromethyl)tetrahydropyran-4-yl]methyl]-N4-[[4-(trifluoromethyl)phenyl]methyl] pyrimidine-4,6-diamine], in that order: greater than 80%, greater than 80 % inhibition and greater than 6.30.
In the case of `C[S+]([O-])c1ccc(CNc2ncnc(N(Cc3ccc(C(F)(F)F)cc3)C3CC3)c2F)cc1` (centres unmarked) [Example A76, N4-cyclopropyl-5-fluoro-N6-[(4-methylsulfinylphenyl)methyl]-N4-[[4-(trifluoromethyl)phenyl]methyl] pyrimidine-4,6-diamine], the inhibition at 1 µM in assay [1] (setting [3]) was greater than 80%. The “Gal4 activity range @ 0.1 μM (% inhibition)” value in assay [1] was greater than 80 % inhibition. In assay [2], this molecule showed a pIC50 greater than 6.30.
